Reference: patent publication US20260209260A1, “VECTORIZED NHC IRIDIUM(III) COMPLEXES AND USE THEREOF IN PHOTODYNAMIC THERAPY AND/OR DIAGNOSTIC” (CENTRE NATIONAL DE LA RECHERCHE SCIENTIFIQUE, priority 2022, published 2026)
Read-outs that look alike come from different tables or passages of the source.

Key:
[1] = Lipophilicity: octanol-water partition coefficient, shake-flask method
Procedure: The octanol-water partition coefficients (P) of all the complexes were determined using a shake-flask method^8. Water (100 mL, distilled after milli-Q purification) and n-octanol (100 mL, Sigma Aldrich, ACS spectrophotometric grade, ≥99%) were shaken together for 24 h to allow saturation of both phases. Stock solutions of the compounds ([…]) were prepared in the aqueous phase. Aliquots (2 mL) of each of these stock solutions were then added to an equal volume of the n-octanol phase. The resultant biphasic solution was mixed for 15 min and then centrifuged (3000 tr/min, 5 min) to separate the phases. The concentrations of the complex in the organic and aqueous phases were then determined using UV absorbance spectroscopy (260 nm). The blank is the water saturated with n-octanol. Log P was defined as logarithm of the ratio of the concentrations of the complex in the organic and aqueous phases (values reported are the means of at least three separated determinations).
The Log P values have been determined by a classical shake-flask method.

[2] = UV/Vis absorption spectra; assay type: physicochemical; conditions: room temperature; for maximum absorption, lowest-lying bands in the visible region over 360 nm: CH2Cl2 or CH2Cl2/MeOH (1:1); for λmax (nm) ε (M^−1 · cm^−1): air-saturated CH2Cl2 or CH2Cl2/MeOH (1:1), 50 μM, ε in brackets, sh = shoulder
Procedure: UV/Vis absorption spectra were recorded at RT on solutions contained in quartz cuvettes (optical pathlength 1 cm, Hellma®) with a PerkinElmer® UV/VIS/NIR spectrophotometer Lambda 950 and a PerkinElmer® detector UV/VIS/NIR Accessory 2D Detector Module.

[3] = Luminescence emission spectra and quantum yield; assay type: physicochemical; conditions: for ΦP emission phosphorescence quantum yield: room temperature, reference POPOP in hexane or rhodamine B in ethanol; for λem: CH2Cl2, room temperature, λexc 365 nm or 470 nm
Procedure: Fluorescence and phosphorescence emission spectra were obtained with a HORIBA JOBIN YVON, fluromax-4 and spectrofluorometer.
Luminescence quantum yields were measured according to the method of Demas and Crosby, on solution samples at RT. The quantum yield is defined as: […]
Where ΦP is the quantum yield of the sample, ΦR is the know quantum yield of the reference standard. […].
The luminescence spectra of vectorized iridium(III) complexes were determined in CH2Cl2 at room temperature (Table 3).

[4] = Emission lifetime measurement; assay type: physicochemical
Procedure: Fluorescence lifetime measurements were performed by an Edinburgh FLS920 spectrofluorimeter equipped with a TCC900 card for data acquisition in time-correlated single-photon counting experiments (0.5 ns time resolution) with a D2 lamp and an LDH—P-C-405 pulsed diode laser. The estimated experimental error is 2 nm on the band maximum (5% on the lifetime, 10% on the fluorescence quantum yield).
The emission lifetimes of biotin-vectorized complexes (I-a) to (I-l) range from 138 ns to 411 ns, among them, the lifetime of biotin-vectorized complexes (I-c), (I-e), (I-k) are 411, 224, and 322 ns respectively. The emission lifetimes of FTS-vectorized complexes (II-a) to (II-l) range from 167 ns to 486 ns, among them, the lifetime of FTS-vectorized complexes (II-c) and (II-k) are 319 and 486 ns respectively. The emission lifetimes of PSMA-vectorized complexes (III-a) to (III-l) are in the range of 159-649 ns, among them, the lifetime of complexes (III-a) and (III-k) were 248 and 649 ns, respectively. The emission lifetimes of Fc-vectorized complexes (IV-a) to (IV-l) are in the range of 178-228 ns.

[5] = tested on: NIH-3T3 fibroblast cells (non-tumor); test: Cell viability assay (MTT), dark and blue light; assay type: cell-based, Murine; conditions: for Photosensitizing index (PI): NIH-3T3, dark vs blue light
Procedure: (§1) Cells were grown in humidified incubators at 37° C. in 5% CO2. Murine MC3T3 osteoblast and NIH-3T3 fibroblast cells-used as non-tumor cell models-were cultured in a-MEM medium and DMEM medium supplemented with 10% fetal bovine serum (FBS) and 1% Penicillin/Streptomycin (P/S) antibiotics, respectively. Human T24 bladder, MGHU3 bladder, Scaber bladder, A549 lung, MCF7 breast, MiaPaCa2 pancreas cancer cells were cultured in DMEM medium supplemented with 10% FBS and 1% P/S antibiotics. […] Human Hela cervix and HepG2 liver cancer cells were cultured EMEM medium supplemented with 10% FBS and 1% P/S antibiotics.
(§2) MTT reagent (3-(4,5-dimethylthiazol-2-yl)-2,5-diphenyltetrazolium bromide) was used to determine cell death as originally described by Mosmann. Briefly, cells were seeded from 5,000 to 10,000 cells/well in 24-well plates (1 mL) depending on the cell type and allowed to attach overnight. The complexes were prepared in DMSO. The concentration of the complexes was calculated based on the elemental composition of the complexes determined by the elemental analyses. All cell viability experiments were carried out with a fixed concentration of 0.1% (v/v) DMSO. After 72 h of treatment, cells were incubated at 37° C. and 5% CO2 with 25 μL of MTT solution (5 mg/ml; Sigma-Aldrich) in 24-well plates for 3 to 4 h. After solubilization with 500 μL of DMSO, formazan was quantified spectrophotometrically with a microplate reader at 570 nm absorbance (ClarioSTAR, BMG LabTech). […] All the results were calculated from data obtained in at least three independent experiments performed in triplicate.
(§3) Two sets of experiments were conducted in parallel for each complex to be studied:
(§4) 1. The cells were incubated with the different complexes (in the dark) for 72 h.
(§5) 2. The cells were incubated for 8 h with the different complexes (in the dark), then irradiated for 10 min, followed by an incubation in the dark up to 72 h.

[6] = tested on: T24 bladder cancer cells; test: Cell viability assay (MTT), dark and blue light; assay type: cell-based, Human
Procedure: as §1, §2, §3, §4, §5

[7] = tested on: PC-3 prostate cancer cells (PSMA-negative); test: Cell viability assay (MTT), dark and blue light; assay type: cell-based, Human; conditions: for Photosensitizing index (PI): PC3, dark vs blue light; for GI50: read-out: GI50
Procedure: Cells were grown in humidified incubators at 37° C. in 5% CO2. Murine MC3T3 osteoblast and NIH-3T3 fibroblast cells-used as non-tumor cell models-were cultured in a-MEM medium and DMEM medium supplemented with 10% fetal bovine serum (FBS) and 1% Penicillin/Streptomycin (P/S) antibiotics, respectively. Human T24 bladder, MGHU3 bladder, Scaber bladder, A549 lung, MCF7 breast, MiaPaCa2 pancreas cancer cells were cultured in DMEM medium supplemented with 10% FBS and 1% P/S antibiotics. Human ASPC-1 pancreas, PC-3 prostate, DU-145 prostate, C4-2B prostate and 22rV1 prostate cancer cells were cultured in RPMI medium supplemented with 10% FBS and 1% P/S antibiotics. Human Hela cervix and HepG2 liver cancer cells were cultured EMEM medium supplemented with 10% FBS and 1% P/S antibiotics.
as §2
Irradiation was conducted using an in-house device, a series of blue light LEDs selected according to the absorption spectra of the compounds at 458 nm wavelength with an emitted power of 9.6 Watts. The light fluence was measured at 458 nm with an optical power meter Thorlabs PM100A at different distances between the cell layer and the light source (5 and 10 cm).
as §3, §4, §5

[8] = n-octanol/water, shake-flask, mean of at least three determinations
[9] = NIH-3T3, blue light, read-out: GI50

SMILES | Log P [1, 8] | maximum absorption, lowest-lying bands in the visible region over 360 nm [2] | λmax (nm) ε (M^−1 · cm^−1) [2] | ΦP emission phosphorescence quantum yield [3] [%] | τ1 emission lifetime [4] [ns] | Log P [1] | GI50 [5, 9] [µM] | Photosensitizing index (PI) [5] | SI (vs NIH-3T3) ([7]; PC3, blue light) | SI (vs NIH-3T3) ([7]; PC3, dark) | Photosensitizing index (PI) [7] | GI50 ([7]; PC3, blue light) [µM] | GI50 ([7]; PC3, dark) [µM] | λem [3] [nm] | GI50 ([5]; NIH-3T3, dark, read-out: GI50) [µM] | further results
Cc1ccc2[c](c1)[Ir-3]13([c]4cc(C)ccc4-c4cccc[n+]41)([c]1n(CCCNC(=O)CCCC[C@@H]4SC[C@@H]5NC(=O)N[C@@H]54)cc[n+]1-c1cccc[n+]13)[n+]1ccccc1-2.F[P-](F)(F)(F)(F)F [I-b] | 0.43 ± 0.01 | around 380 nm | 314 (sh) (18240), 382 (6150) nm (M^−1 · cm^−1) | 0.5 | 177 |  |  |  |  |  |  |  |  |  |  | GI50 ([5]; 8 h in the dark, blue light 458 nm 10 min, then dark up to 72 h, read-out: GI50 NIH-3T3 Blue): > 100 µM; GI50 ([5]; in the dark, 72 h, read-out: GI50 NIH-3T3 Dark): > 100 µM; GI50 ([6]; 8 h in the dark, blue light 458 nm 10 min, then dark up to 72 h, read-out: GI50 T24 Blue): 8.3 µM; SI (vs NIH-3T3) T24 Dark ([6]; dark): >7.3; Photosensitizing index (PI) T24 ([6]; dark vs blue light 458 nm, listed as l-b): 1.7; GI50 ([6]; in the dark, 72 h, read-out: GI50 T24 Dark): 13.7 µM
COC(=O)c1ccc2[c](c1)[Ir-3]13([c]4cc(C(=O)OC)ccc4-c4cccc[n+]41)([c]1n(CCCNC(=O)[c-]4cccc4)cc[n+]1-c1cccc[n+]13)[n+]1ccccc1-2.F[P-](F)(F)(F)(F)F.[Fe+2].c1cc[cH-]c1 [IV-c] |  |  | 304 (sh) (28570), 353 (sh) (7050), 399 (5315), 427 (sh) (3660) nm (M^−1 · cm^−1) | 0.04 | 195 | 0.72 ± 0.03 | 9.3 | 3.5 | 10.7 | 2.2 | 16.8 |  |  |  |  | 
COC(=O)c1cccc2[c]1[Ir-3]13([c]4c(C(=O)OC)cccc4-c4cccc[n+]41)([c]1n(CCCNC(=O)[c-]4cccc4)cc[n+]1-c1cccc[n+]13)[n+]1ccccc1-2.F[P-](F)(F)(F)(F)F.[Fe+2].c1cc[cH-]c1 [IV-d] | 0.77 ± 0.01 | around 370 nm | 335 (sh) (9725), 372 (6540) nm (M^−1 · cm^−1) | 0.03 | 228 |  |  | 1.9 | 12.0 | 1.3 | 17.0 | 1.3 | 21.6 |  |  | 
COC(=O)c1ccc2[n+](c1)[Ir-3]13([c]4ccccc4-2)([c]2ccccc2-c2ccc(C(=O)OC)c[n+]21)[c]1n(CCCNC(=O)[c-]2cccc2)cc[n+]1-c1cccc[n+]13.F[P-](F)(F)(F)(F)F.[Fe+2].c1cc[cH-]c1 [IV-e] |  |  | 312 (sh) (27925), 363 (sh) (7290), 434 (6530) nm (M^−1 · cm^−1) | 0.17 | 200 | 1.37 ± 0.05 | 4.2 | 7.7 |  |  | 18.3 | 0.54 | 9.9 | 528 | 32.3 | 
F[P-](F)(F)(F)(F)F.O=C(NCCCn1cc[n+]2[c]1[Ir-3]13([c]4ccccc4-c4ccc5ccccc5[n+]41)([c]1ccccc1-c1ccc4ccccc4[n+]13)[n+]1ccccc1-2)[c-]1cccc1.[Fe+2].c1cc[cH-]c1 [IV-g] |  |  | 334 (17135), 436 (4150) nm (M^−1 · cm^−1) | 0.02 | 214 | 1.42 ± 0.06 |  | 3.3 | 13.7 | 7.9 | 5.8 |  | 1.5 | 579 | 11.8 | 
F[P-](F)(F)(F)(F)F.O=C(NCCCn1cc[n+]2[c]1[Ir-3]13([c]4cc(F)cc(F)c4-c4cccc[n+]41)([c]1cc(F)cc(F)c1-c1cccc[n+]13)[n+]1ccccc1-2)[c-]1cccc1.[Fe+2].c1cc[cH-]c1 [IV-l] |  |  | 305 (sh) (21345), 356 (sh) (8645), 412 (3395) nm (M^−1 · cm^−1) | 0.01 | 191 | 1.14 ± 0.02 |  | 5.4 |  | 4.8 | 3.2 |  |  |  |  | 
